Reference: a melting point compilation (Tetko et al.; mined from patent text by program, amines drawn as free bases though some values may be those of a salt)

melting point	SMILES
102 to 103 °C	CCOC(=O)c1nn(-c2ccccc2)c2c1CCCC2
165 to 166 °C	CCc1ccc(C2C(C#N)=C(CC(C)C)NC(C)=C2C(=O)OC(C)(C)C)cc1 (stereo unspecified)
124 to 130 °C	O=C1NC(C(=O)N2CC(O)CC2C(=O)O)CSCCCCCCCC1CS (stereo unspecified)
263 to 264 °C	CN(C)CCOc1ccc2[nH]c(C(=O)N3CC(CCl)c4c3cc([N+](=O)[O-])c3cc([N+](=O)[O-])ccc43)cc2c1 (stereo unspecified)
95 to 96 °C	CNCCOc1ccc(C(=O)NC)cc1
192 to 193 °C	Cn1nc2c(-c3ccc(Cl)cc3Cl)cccc2c1CCC#N
72 to 73 °C	CCOC(=O)CCCc1oc(-n2ccnc2C)nc1-c1ccc(Cl)cc1
63 to 65 °C	COC(=O)c1cccc(-c2cccc(N)c2)c1
143 to 146 °C	Cc1cn2c(c1C(=O)OC(C)C)SCC2CC(N)=O (stereo unspecified)
212 to 214 °C	O=C(O)Cn1ncc2c(=O)n3c(nc21)SCC3
81 to 82 °C	COC(=O)CCSCCOC1OC(COC(C)=O)C(OC(C)=O)C(OC(C)=O)C1OC(C)=O (stereo unspecified)
154 to 155 °C	CC(C)N(CCN1C(=O)/C(=N/NC(N)=O)c2cc(Cl)ccc21)C(C)C
135 to 138 °C	CCC(=O)c1cc2c(s1)CCC1CC(=O)N(c3ccc(Cl)cc3)N=C21 (stereo unspecified)
175 to 177 °C	CC(=N)Nc1cccc(F)c1
135 to 136 °C	CCOc1ccc(C2=NN(C3CCN(C(=O)CCl)CC3)C(=O)[C@@H]3CC=CC[C@H]23)cc1OCC
118 to 121 °C	CCCCCC(=O)NC(Cc1cnc(SCCC)n1Cc1ccccc1Cl)C(=O)O (stereo unspecified)
46 °C	COC(=N)c1cc(Oc2ccc(C(F)(F)F)cc2Cl)ccc1[N+](=O)[O-]
267 to 269 °C	O=C1C(=O)c2ccccc2C2=C1SCC1(CCN(C(=O)c3ccncc3)CC1)O2
134 to 135 °C	CCOC(=O)C=Cc1ccc(N)c(O)c1
148 to 151 °C	Cc1ccc(C)c2c1CN(NC(=O)OC(C)(C)C)C2
220 to 222 °C	Cc1ncc(C=CC=CC(=O)O)s1
139 °C	CC(O)CN(CC(C)O)c1cc(C(C)(C)C)cc(C(C)(C)C)c1 (stereo unspecified)
273 to 276 °C	COc1cc2c(cc1OC)-c1c(C(=O)NC3CCCCC3)c(-c3cc(C)c(O)c(C)c3)c(C)n1CC2
68 °C	O=S(=O)(Cl)c1ccc(Cl)c(CCl)c1Cl
> 245 °C	CN[C@@H]1COc2cc(Cl)cc(-c3ccccc3C)c2O1

melting point	SMILES
180 °C	COc1ccc(CN(C)CCCc2ccc(NC(=O)c3cccc4c(=O)c5cccc(OC)c5[nH]c34)cc2)cc1OC
124 to 127 °C	O=C1c2ccccc2N(Cc2cccs2)C2=NCCN12
151 to 154 °C	CC(C)(C)OC(=O)N1CCC2(CC1)CC(=O)N(O)C2=O
73 to 75 °C	CCCc1ccccc1OCCCCCOc1ccc2c(=O)cc(C(=O)OCC)oc2c1CCC
120 to 122 °C	CCOC(=O)c1ccc2c(c1)sc1cc(Cl)ccc12
231 to 232 °C	C[C@@H](n1cnc2cc(-c3ccc(C#N)cc3)sc2c1=O)[C@](O)(Cn1cncn1)c1ccc(F)cc1F
167 °C	CCCn1nnc2c(C(N)=O)ncn2c1=O
103 to 117 °C	CCCNC(=O)C(C)Cc1ccc2c(c1)c(Cc1ccc(C(=O)NS(=O)(=O)c3ccccc3C)cc1OC)cn2C (stereo unspecified)
175 to 176 °C	COc1cc(OC)nc(Sc2[nH]nc(C)c2[N+](=O)[O-])n1
195 °C	CC(=O)Oc1c(C(C)(C)C)cc2c(c1C(C)(C)C)C=CS2(=O)=O
212 to 214 °C	CC(=O)N1CCC(n2c(=O)[nH]c3ccccc32)CC1
235 to 237 °C	O=C(C=Cc1ccccc1)Nc1ccc(S(=O)(=O)O)cc1
106 to 109 °C	COc1ccc(SC2(CCCC#Cc3ccc(Cl)cc3)SC(=O)NC2=O)cc1 (stereo unspecified)
90 to 95 °C	Cc1ccc(S(=O)(=O)NC(=O)OCCc2ccc(-n3c(CCCc4cccnc4)nc4cc(C(F)(F)F)c(Cl)cc43)cc2)cc1
258 to 259 °C	Cc1cc(-n2cncn2)cc2c1NC(=O)CC2
260 to 262 °C	CC(C)C[C@H]1CNC[C@H]1C(=O)O (relative stereo)
138 to 140 °C	CCN(c1ccc(Cl)cc1C#N)S(=O)(=O)c1ccc(C)cc1
109 to 110 °C	Cc1ccc(I)cc1Cc1ccc(-c2ccc(F)cc2)s1
144 °C	c1ccc2c3c([nH]c2c1)C(c1ccc2c(c1)OCCO2)NCC3 (stereo unspecified)
221 °C	Nc1nc(N)c(-c2ccc(Cl)cc2Cl)c(C(=O)O)n1
87 to 90 °C	Cc1nn(C)c2c(Cl)nc(C3CC3)nc12
150 to 151 °C	O=C(O)C1Cc2c([nH]c3ccccc23)CN1C(=S)SC1CCCCC1 (stereo unspecified)
86 to 87 °C	Cc1cc(C)c2c(c1O)C(=O)C(C)(Cc1ccccc1)C2 (stereo unspecified)
105 to 110 °C	Nc1ncccc1OCc1ccccc1C(F)(F)F
221 °C	N#Cc1cc2c(c(C(=O)O)c1)OC(c1ccccc1)(c1ccccc1)O2

melting point	SMILES
69 to 71 °C	O=C(Nc1ccc(OCc2ccncc2)c2ccccc12)c1cc(F)cc(N2CCCCC2)c1
197 to 200 °C	CCn1ncc2c(OC)c3c(nc21)C(=O)c1ccccc1CC3
184 to 186 °C	COC(=O)[C@H]1CC[C@H](n2cnn(-c3ccc(C4CCN(C(=O)C(F)(F)F)CC4)cc3)c2=O)CC1
129 to 130 °C	CN(CCCN=C(NC#N)c1cc(C(C)(C)C)c(O)c(C(C)(C)C)c1)CCOc1ccc2c(c1)OCO2
129 to 132 °C	O=C(Cl)c1cccc(C(=O)Cl)c1[N+](=O)[O-]
93.5 to 94 °C	Cc1cc(C)c(S(=O)(=O)OCCC2CCN(S(=O)(=O)c3c(C)cc(C)cc3C)CC2)c(C)c1
> 300 °C	N#Cc1cccc(-c2nc(-c3ccc(C(=O)O)cc3)cc3cccnc23)c1
114 to 117 °C	CC(=O)NNc1ccc(N(Cc2ccccc2)C(=S)Nc2ccccc2)cc1
230 to 232 °C	Cn1cc(C2=C(c3ccccc3)C(=O)NC2=O)c2ccccc21
206 to 207 °C	O=C(Nc1ccc(-c2ccc3c(NC(=O)c4ccccc4)n[nH]c3c2F)cc1)Nc1cc(C(F)(F)F)ccc1F
164 to 165 °C	Oc1cccc([C@H]2CCCC[C@@H]2NCCc2ccccc2)c1 (racemic)
130 to 133 °C	O=C(N1CCC2(C=Cc3ccccc32)CC1)N1CCCc2ccccc21
67 to 69 °C	CC(C)NC(=O)C(C)CN(C)C (stereo unspecified)
207 to 208 °C	CC(C)n1nc(-c2cc(Cl)c(N)nc2-c2ccccc2)ccc1=O
170 °C	CCOC(=O)COc1cc(C2C(C(=O)OC)=C(C)NC(C)=C2C(=O)OC)ccc1OC
201 to 203 °C	CCC(C)(C)Nc1c(NCc2ccc(F)cc2Cl)c(=O)c1=O
140 °C	COc1ccc2sc(C34CC5CC(CC(C5)C3)C4)cc(=O)c2c1
75 to 77 °C	CC(C)C[C@H](NC(=O)OC(C)(C)C)[C@@H]1CCC(=O)O1
186 to 187 °C	O=C1CCCc2ccc(OCCCCN3CCN(c4cccc5c4OCCC5)CC3)nc2N1
208 °C	COc1cc([N+](=O)[O-])c(N)cc1O
142 to 144 °C	COc1cccc([C@H]2O[C@H](CC(=O)Nc3ccc(CC(=O)O)cc3)C(=O)N(CC(C)(C)CO)c3ccc(Cl)cc32)c1OC
187 to 188 °C	Clc1ccc2c(Nc3ccc(N4CCOCC4)c(CN4CCCC4)c3)ccnc2c1
101 to 102 °C	CS(=O)(=O)Nc1ccc([C@@H]2CCC(=O)O2)cc1
188 to 191 °C	CNC(=O)c1ccccc1Nc1nc(Nc2ccc3c(c2)CCN(C[C@@H](O)C(F)(F)F)CC3)ncc1Cl
134 to 136 °C	COc1ccccc1N1CCN(CCNc2ccccc2C(N)=O)CC1

melting point	SMILES
100 to 101 °C	CCCCCCCCC(=O)Nc1cc(C)c(O)c(C)c1
167 to 168 °C	Cc1ccc(-n2nc(C#N)cc2-c2ccc(S(C)(=O)=O)cc2)cc1F
34 °C	Cc1cc(C)c2c(c1Br)CC=C2
110 to 112 °C	O=C(CCC(=O)c1ccccc1)NCc1ccccc1
186 to 187 °C	NC(=S)c1c(Cl)cncc1Cl
193 to 198 °C	CNCCCc1c[nH]c(-c2ccc(F)cc2)c1-c1ccncc1
175 to 177 °C	CCc1[nH]n(C2CCCC2)c2nc(Oc3ccccc3)nc(=O)c1-2
84 to 86 °C	OC(=S)c1cccnc1
71 to 76 °C	COC(=O)CCCC#Cc1cc(Cl)ccc1NS(=O)(=O)c1cccc(OC)c1
198 to 200 °C	O=[N+]([O-])c1cnc2cc(Cl)ccc2c1Nc1ccc(F)cc1
101 to 102 °C	C#CCn1cc(F)c(SC)nc1=O
190 °C	NS(=O)(=O)c1ccc(-n2nc(C(F)(F)F)cc2-c2ccc(-c3ccco3)cc2)c(Cl)c1
195 to 196 °C	CC(C(=O)O)c1ccc2c(c1)C(=O)Cc1cc(Cl)ccc1S2 (stereo unspecified)
65 to 72 °C	Cn1cc(-c2ccccc2)c(=O)c(-c2cccc(S(=O)(=O)c3ccccc3)c2)c1
124 to 126 °C	CCC(C)(C)NCCC(C(=O)O)C(=O)c1ccc(Cl)cc1Cl (stereo unspecified)
180 °C	N#Cc1cnn2c(C(F)(F)F)cc(-c3ccc(Cl)cc3Cl)nc12
84 to 86 °C	CCCc1c(OCCCOc2cccc(C(=O)NCCCCc3cccnc3)c2)ccc(C(C)=O)c1O
189 to 190 °C	CNC(=O)c1cc(F)ccc1CNC(=O)c1nc2n(c(=O)c1OCc1ccccc1)CCOC2
104 to 105 °C	N#Cc1ccc(OCC(O)CN2CC3CC(C2)CN(C(=O)OCCCl)C3)cc1 (stereo unspecified)
170 to 171 °C	Cc1c(Cc2ccc(C(C)C)cc2)c2c(c(C)c1NC(=O)CC(C)(C)C)CC(C)(C)O2
215 to 216 °C	O=C(c1cc(O)cc2cc(-c3ccc(O)cc3)oc12)C(F)(F)F
194 to 195 °C	CCC(C)(COc1nn2nc(C)nc2cc1C)CS(N)(=O)=O (stereo unspecified)
107 to 110 °C	CCOC(=O)c1cnc(-c2cc(N)ccc2OCC)[nH]c1=O

SMILES	melting point
CCNC(=O)Nc1ccc2c(c1Cl)C(c1ccccc1F)=NCC(=O)N2C	155 to 160 °C
CCCCNC(=O)CC(F)=C(F)F	34 to 36 °C
COc1ccc(NS(=O)(=O)c2ccccc2Br)cc1N(C)C1CCN(C)CC1	119 to 121 °C
